Data on one compound can be found in PMC4229385 (Circulation, 2014).

The target of this assay is V1AR (AVP type 1A receptor) (Homo sapiens, UniProt P37288). Description: DAGR FRET assay, block of AVP-induced DAG generation at […]. It is filed as cell-based.
V1AR (AVP type 1A receptor), sequence (P37288 whole entry): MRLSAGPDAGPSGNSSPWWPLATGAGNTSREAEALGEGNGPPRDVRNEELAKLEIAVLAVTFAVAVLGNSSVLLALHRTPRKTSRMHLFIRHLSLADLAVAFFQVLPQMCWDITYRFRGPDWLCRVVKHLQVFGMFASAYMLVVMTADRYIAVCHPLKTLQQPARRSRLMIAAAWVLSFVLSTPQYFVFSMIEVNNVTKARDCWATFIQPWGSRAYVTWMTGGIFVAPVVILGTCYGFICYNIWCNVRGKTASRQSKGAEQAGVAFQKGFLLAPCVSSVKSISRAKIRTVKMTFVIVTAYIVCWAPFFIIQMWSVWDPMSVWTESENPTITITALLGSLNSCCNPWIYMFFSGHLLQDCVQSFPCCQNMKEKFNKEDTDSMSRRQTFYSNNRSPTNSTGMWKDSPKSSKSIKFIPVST

Take `COc1ccc(S(=O)(=O)N2c3ccc(Cl)cc3[C@](O)(c3ccccc3Cl)[C@@H]2C(=O)N2CCC[C@H]2C(N)=O)cc1OC` [SR 49059]: the “DAGR FRET assay, block of AVP-induced DAG generation at 10 μM” value was “it completely blocked AVP-dependent DAG production (Fig. 4E)”.
